Results taken from ChEMBL document CHEMBL3045401, “(Naphthalen-1-yloxy)-acetic acid benzylidene/(1-phenyl-ethylidene)-hydrazide derivatives: synthesis, antimicrobial evaluation, and QSAR studies” (Med Chem Res, 2012).
Values after ≈ are worked out from the molar mass of the structure shown.

Legend:
[1] = system: Human immunodeficiency virus 1; experiment: Antiviral activity against Human immunodeficiency virus 1 IIIB infected human MT4 cells assessed as inhibition of virus-induced cytopathic effect after 4 days by MTT assay; assay type: functional, organism-based; settings: MT4, 96 h
Staphylococcus aureus = experiment: Antimicrobial activity against Staphylococcus aureus after 24 hr by serial dilution method; assay type: functional
Bacillus subtilis = experiment: Antimicrobial activity against Bacillus subtilis after 24 hr by serial dilution method; assay type: functional
[2] = Cytotoxicity against HEL assessed as minimum concentration required to cause morphological changes; assay type: cell-based; settings: human, HEL cells
Aspergillus niger = experiment: Antimicrobial activity against Aspergillus niger after 7 days by serial dilution method; assay type: functional
Human betaherpesvirus 5 [3] = experiment: Antiviral activity against Human herpesvirus 5 Davis infected human HEL cells assessed as reduction in the virus plaque formation; assay type: functional, organism-based; settings: Human betaherpesvirus 5, Davis
Candida albicans = experiment: Antimicrobial activity against Candida albicans after 2 days by serial dilution method; assay type: functional
Human betaherpesvirus 5 [4] = experiment: Antiviral activity against Human herpesvirus 5 strain AD169 infected human HEL cells assessed as reduction in the virus plaque formation; assay type: functional, organism-based; settings: Human betaherpesvirus 5, AD169, HEL
[5] = Cytotoxicity against Homo sapiens (human) MT4 cells after 4 days by MTT assay; assay type: cell-based
[6] = system: Human immunodeficiency virus 2; experiment: Antiviral activity against Human immunodeficiency virus type 2 (ISOLATE ROD) infected human MT4 cells assessed as inhibition of virus-induced cytopathic effect after 4 days by MTT assay; assay type: functional, organism-based; settings: Human immunodeficiency virus 2, ISOLATE ROD, MT4, 96 h
[7] = Octanol-water partition coefficient, log P of the compound; assay type: physicochemical
Escherichia coli = experiment: Antimicrobial activity against Escherichia coli after 24 hr by serial dilution method; assay type: functional
[8] = Cytotoxicity against HEL; assay type: cell-based; settings: human, HEL cells
Human alphaherpesvirus 3 [9] = experiment: Antiviral activity against thymidine kinase-deficient Human herpesvirus 3 infected in HEL cells assessed as inhibition of viral plaque formation; assay type: functional, organism-based; settings: Human alphaherpesvirus 3, HEL
Human alphaherpesvirus 3 [10] = experiment: Antiviral activity against thymidine kinase-positive Human herpesvirus 3 infected in HEL cells assessed as inhibition of viral plaque formation; assay type: functional, organism-based; settings: Human alphaherpesvirus 3, HEL

COc1cc(/C=N/NC(=O)COc2cccc3ccccc23)cc(OC)c1O
EC50 [1]: > 16.3 µg/mL
-logMIC (Staphylococcus aureus): 1.18
-logMIC (Bacillus subtilis): 1.48
MCC [2]: 100 µg/mL
-logMIC (Aspergillus niger): 1.48
EC50 (Human betaherpesvirus 5 [3]): > 20 µg/mL
-logMIC (Candida albicans): 1.78
EC50 (Human betaherpesvirus 5 [4]): > 20 µg/mL
CC50 at 96 h [5]: 16.3 µg/mL (≈ 42.8 µM)
EC50 [6]: > 16.3 µg/mL
logP [7]: 3.23
-logMIC (Escherichia coli): 1.48
CC50 [8]: 52.8 µg/mL (≈ 139 µM)
EC50 (Human alphaherpesvirus 3 [9]): > 20 µg/mL
EC50 (Human alphaherpesvirus 3 [10]): 16.9 µg/mL (≈ 44.4 µM)

O=C(COc1cccc2ccccc12)N/N=C/c1ccc(Br)cc1
EC50 [1]: > 106 µg/mL
-logMIC (Staphylococcus aureus): 0.58
-logMIC (Bacillus subtilis): 0.58
MCC [2]: > 100 µg/mL
-logMIC (Aspergillus niger): 0.58
EC50 (Human betaherpesvirus 5 [3]): > 100 µg/mL
-logMIC (Candida albicans): 0.58
EC50 (Human betaherpesvirus 5 [4]): > 100 µg/mL
CC50 at 96 h [5]: 106 µg/mL (≈ 278 µM)
EC50 [6]: > 106 µg/mL
logP [7]: 4.81
-logMIC (Escherichia coli): 0.58
CC50 [8]: 100 µg/mL (≈ 261 µM)
EC50 (Human alphaherpesvirus 3 [9]): > 100 µg/mL
EC50 (Human alphaherpesvirus 3 [10]): > 100 µg/mL

CCOc1ccc(/C=N/NC(=O)COc2cccc3ccccc23)cc1O
EC50 [1]: > 6.23 µg/mL
-logMIC (Staphylococcus aureus): 1.16
-logMIC (Bacillus subtilis): 1.46
MCC [2]: 100 µg/mL
-logMIC (Aspergillus niger): 1.46
EC50 (Human betaherpesvirus 5 [3]): > 20 µg/mL
-logMIC (Candida albicans): 1.46
EC50 (Human betaherpesvirus 5 [4]): > 20 µg/mL
CC50 at 96 h [5]: 6.23 µg/mL (≈ 17.1 µM)
EC50 [6]: > 6.23 µg/mL
logP [7]: 3.82
-logMIC (Escherichia coli): 1.46
CC50 [8]: 18.1 µg/mL (≈ 49.7 µM)
EC50 (Human alphaherpesvirus 3 [9]): > 4 µg/mL
EC50 (Human alphaherpesvirus 3 [10]): > 4 µg/mL

O=C(COc1cccc2ccccc12)N/N=C/c1ccc([N+](=O)[O-])cc1
EC50 [1]: > 87.8 µg/mL
-logMIC (Staphylococcus aureus): 0.84
-logMIC (Bacillus subtilis): 1.14
MCC [2]: 20 µg/mL
-logMIC (Aspergillus niger): 0.54
EC50 (Human betaherpesvirus 5 [3]): > 4 µg/mL
-logMIC (Candida albicans): 1.45
EC50 (Human betaherpesvirus 5 [4]): > 4 µg/mL
CC50 at 96 h [5]: 87.8 µg/mL (≈ 251 µM)
EC50 [6]: > 87.8 µg/mL
logP [7]: 3.97
-logMIC (Escherichia coli): 0.84
CC50 [8]: 14.2 µg/mL (≈ 40.6 µM)
EC50 (Human alphaherpesvirus 3 [9]): > 4 µg/mL
EC50 (Human alphaherpesvirus 3 [10]): > 4 µg/mL

C/C(=N\NC(=O)COc1cccc2ccccc12)c1ccccc1Br
EC50 [1]: > 79.8 µg/mL
-logMIC (Staphylococcus aureus): 1.2
-logMIC (Bacillus subtilis): 1.2
MCC [2]: 20 µg/mL
-logMIC (Aspergillus niger): 1.5
EC50 (Human betaherpesvirus 5 [3]): > 4 µg/mL
-logMIC (Candida albicans): 1.5
EC50 (Human betaherpesvirus 5 [4]): > 4 µg/mL
CC50 at 96 h [5]: 79.8 µg/mL (≈ 201 µM)
EC50 [6]: > 79.8 µg/mL
logP [7]: 4.44
-logMIC (Escherichia coli): 1.2
CC50 [8]: 16.2 µg/mL (≈ 40.8 µM)
EC50 (Human alphaherpesvirus 3 [9]): > 4 µg/mL
EC50 (Human alphaherpesvirus 3 [10]): > 4 µg/mL

COc1ccc(/C=N/NC(=O)COc2cccc3ccccc23)cc1O
EC50 [1]: > 7.05 µg/mL
-logMIC (Staphylococcus aureus): 1.15
-logMIC (Bacillus subtilis): 1.45
MCC [2]: 100 µg/mL
-logMIC (Aspergillus niger): 1.15
EC50 (Human betaherpesvirus 5 [3]): > 20 µg/mL
-logMIC (Candida albicans): 1.15
EC50 (Human betaherpesvirus 5 [4]): > 20 µg/mL
CC50 at 96 h [5]: 7.05 µg/mL (≈ 20.1 µM)
EC50 [6]: > 7.05 µg/mL
logP [7]: 3.48
-logMIC (Escherichia coli): 1.45
CC50 [8]: 27.7 µg/mL (≈ 79.1 µM)
EC50 (Human alphaherpesvirus 3 [9]): 20 µg/mL (≈ 57.1 µM)
EC50 (Human alphaherpesvirus 3 [10]): 13.8 µg/mL (≈ 39.4 µM)

COc1cc(/C=N/NC(=O)COc2cccc3ccccc23)cc(OC)c1OC
EC50 [1]: > 13.4 µg/mL
-logMIC (Staphylococcus aureus): 1.8
-logMIC (Bacillus subtilis): 1.5
MCC [2]: ≥ 20 µg/mL
-logMIC (Aspergillus niger): 1.5
EC50 (Human betaherpesvirus 5 [3]): > 20 µg/mL
-logMIC (Candida albicans): 1.5
EC50 (Human betaherpesvirus 5 [4]): > 4 µg/mL
CC50 at 96 h [5]: 13.4 µg/mL (≈ 34 µM)
EC50 [6]: > 13.4 µg/mL
logP [7]: 3.26
-logMIC (Escherichia coli): 1.5
CC50 [8]: 47.9 µg/mL (≈ 121 µM)
EC50 (Human alphaherpesvirus 3 [9]): 17.4 µg/mL (≈ 44.1 µM)
EC50 (Human alphaherpesvirus 3 [10]): 12.5 µg/mL (≈ 31.7 µM)

O=C(COc1cccc2ccccc12)N/N=C/c1cccc([N+](=O)[O-])c1
EC50 [1]: > 12.1 µg/mL
-logMIC (Staphylococcus aureus): 1.14
-logMIC (Bacillus subtilis): 1.14
MCC [2]: ≥ 20 µg/mL
-logMIC (Aspergillus niger): 0.84
EC50 (Human betaherpesvirus 5 [3]): > 20 µg/mL
-logMIC (Candida albicans): 1.45
EC50 (Human betaherpesvirus 5 [4]): > 4 µg/mL
CC50 at 96 h [5]: 12.1 µg/mL (≈ 34.6 µM)
EC50 [6]: > 12.1 µg/mL
logP [7]: 3.97
-logMIC (Escherichia coli): 1.45
CC50 [8]: 61.2 µg/mL (≈ 175 µM)
EC50 (Human alphaherpesvirus 3 [9]): > 4 µg/mL
EC50 (Human alphaherpesvirus 3 [10]): > 4 µg/mL

O=C(COc1cccc2ccccc12)N/N=C/c1cccc(Cl)c1
EC50 [1]: > 89.9 µg/mL
-logMIC (Staphylococcus aureus): 0.83
-logMIC (Bacillus subtilis): 0.53
MCC [2]: 100 µg/mL
-logMIC (Aspergillus niger): 0.53
EC50 (Human betaherpesvirus 5 [3]): > 20 µg/mL
-logMIC (Candida albicans): 0.53
EC50 (Human betaherpesvirus 5 [4]): > 20 µg/mL
CC50 at 96 h [5]: 89.9 µg/mL (≈ 265 µM)
EC50 [6]: > 89.9 µg/mL
logP [7]: 4.54
-logMIC (Escherichia coli): 0.53
CC50 [8]: 58.6 µg/mL (≈ 173 µM)
EC50 (Human alphaherpesvirus 3 [9]): > 100 µg/mL
EC50 (Human alphaherpesvirus 3 [10]): > 100 µg/mL

C/C(=N\NC(=O)COc1cccc2ccccc12)c1ccc([N+](=O)[O-])cc1
EC50 [1]: > 89.3 µg/mL
-logMIC (Staphylococcus aureus): 1.16
-logMIC (Bacillus subtilis): 1.16
MCC [2]: 100 µg/mL
-logMIC (Aspergillus niger): 0.86
EC50 (Human betaherpesvirus 5 [3]): > 20 µg/mL
-logMIC (Candida albicans): 1.46
EC50 (Human betaherpesvirus 5 [4]): > 20 µg/mL
CC50 at 96 h [5]: 89.3 µg/mL (≈ 246 µM)
EC50 [6]: > 89.3 µg/mL
logP [7]: 3.37
-logMIC (Escherichia coli): 1.46
CC50 [8]: > 100 µg/mL
EC50 (Human alphaherpesvirus 3 [9]): > 20 µg/mL
EC50 (Human alphaherpesvirus 3 [10]): > 20 µg/mL
